Earlier results in US8088935B2, “Compounds and methods for the treatment of asthma” (Ironwood Pharmaceuticals, Inc., priority 2003, dated 2012).

Tests used:
[1] = toxicity studies

O=C(O)c1cc(=O)c2c(OCC(O)COc3cccc4oc(C(=O)O)cc(=O)c34)cccc2o1 [Cromolyn, disodium cromoglycate]
biologic half-life (in vivo): 46-99 minutes
Peak plasma levels occur (time) (inhaled): ≤ 15 min
acute toxicity [1]: impressively low order of acute toxicity
